Test results published in patent US10273267B2, “Beta-hairpin peptidomimetics as selective elastase inhibitors” (POLYPHOR AG, priority 2013, dated 2019).
Where a SMILES comes first, the peptide text is derived from it. [ ]: non-standard residue; d: D form. Oic = O=C(O)[C@@H]1C[C@@H]2CCCC[C@@H]2N1; Gly(octyl) = CCCCCCCC[C@H](N)C(=O)O; hTyr = N[C@@H](CCc1ccc(O)cc1)C(=O)O; Pip = O=C(O)[C@@H]1CCCCN1; Aze = O=C(O)[C@@H]1CCN1

Assays:
Format in all cases: biochemical
[1] = molecular target: T1, human neutrophil elastase (Homo sapiens, UniProt P08246); experiment: Inhibition of human neutrophil elastase (hydrolysis of MeOSuc-AAPV-pNA); details: substrate MeOSuc-AAPV-pNA 0.3 mM, enzyme 10 nM, 37° C., pH 8; read-out: Human neutrophil elastase (hNE) IC50
T1 construct: purchased Serva Electrophoresis, Germany
T1 sequence (P08246 30-267): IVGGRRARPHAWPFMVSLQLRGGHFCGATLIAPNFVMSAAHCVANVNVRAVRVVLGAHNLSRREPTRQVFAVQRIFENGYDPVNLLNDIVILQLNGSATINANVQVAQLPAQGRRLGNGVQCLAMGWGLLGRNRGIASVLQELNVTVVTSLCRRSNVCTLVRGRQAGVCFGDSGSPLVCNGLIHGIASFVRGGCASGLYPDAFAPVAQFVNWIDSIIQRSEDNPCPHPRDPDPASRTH
Summary of the method: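 MeOSuc-AAPV-pNA (0.3 mM) hydrolysis by 10 nM enzyme at 37° C with serially diluted peptides (1% DMSO) in 50 mM Tris pH 8, 300 mM NaCl, 0.01% Tween20. pNA release read at 405 nm over 30 minutes; IC50 from 4-parameter Hill fit.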

[2] = molecular target: T2, porcine pancreatic elastase (Sus scrofa, UniProt P00772); experiment: Inhibition of porcine pancreatic elastase (hydrolysis of MeOSuc-AAA-pNA); details: for hNE/PPE selectivity: ratio of PPE IC50 to hNE IC50; for IC50: substrate MeOSuc-AAA-pNA 1 mM, enzyme 15 nM, 37° C., pH8, read-out: Porcine pancreatic elastase (PPE) IC50
T2 construct: purchased Sigma, USA
Summary of the method: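 Elastase (15 nM) incubated at 37 °C with 1 mM MeOSuc-AAA-pNA and serially diluted peptides (0.5% DMSO) in 50 mM Tris pH 8, 100 mM NaCl, 0.01% Tween20. pNA release read at 405 nm over 30 min; IC50 from 4-parameter Hill fit.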

[3] = molecular target: T3, human proteinase 3 (Homo sapiens, UniProt P24158); experiment: Inhibition of human proteinase 3 (substrate Boc-Ala-Ala-Nva-SBzl); details: for hNE/hPr3 selectivity: ratio of hPr3 IC50 to hNE IC50; for IC50: substrate Boc-Ala-Ala-Nva-SBzl 1 mM, enzyme 10 nM, 37° C., pH7.4, read-out: Human proteinase 3 (hPr3) IC50
T3 construct: purchased Elastin Products Company, USA
T3 sequence (P24158 28-248): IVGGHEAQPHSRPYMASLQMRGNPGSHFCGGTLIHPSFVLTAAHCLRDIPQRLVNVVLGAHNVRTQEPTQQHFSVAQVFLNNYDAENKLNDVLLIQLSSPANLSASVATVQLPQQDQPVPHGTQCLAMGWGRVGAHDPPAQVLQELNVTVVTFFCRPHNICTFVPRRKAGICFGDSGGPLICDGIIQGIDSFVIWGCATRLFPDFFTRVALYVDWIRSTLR
Summary of the method: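 Enzyme at 10 nM incubated at 37°C with 1 mM thiobenzyl ester substrate, 250 μM 4,4′-dithiodipyridine and serial peptide dilutions (0.5% DMSO) in Tris pH 7.4, 150 mM NaCl, 0.01% Tween20. Absorbance at 340 nm followed over 30 min; IC50 from 4-parameter Hill fit.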

T2 sequence (P00772 27-266): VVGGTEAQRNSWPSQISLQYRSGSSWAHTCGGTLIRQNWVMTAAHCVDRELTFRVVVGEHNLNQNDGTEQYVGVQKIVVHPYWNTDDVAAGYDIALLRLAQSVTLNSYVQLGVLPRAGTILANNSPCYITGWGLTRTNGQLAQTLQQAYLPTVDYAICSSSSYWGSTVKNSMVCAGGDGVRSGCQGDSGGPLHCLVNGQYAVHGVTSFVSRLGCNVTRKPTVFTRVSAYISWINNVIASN

SMILES	IC50 [1] [nM]	hNE/PPE selectivity [2]	IC50 [2] [nM]	hNE/hPr3 selectivity [3]	IC50 [3] [nM]
CC[C@H](C)[C@@H]1NC(=O)[C@H](CO)NC(=O)[C@H](C)NC(=O)[C@H]([C@@H](C)O)NC(=O)[C@H](C(C)C)NC(=O)[C@H](CCCNC(=N)N)NC(=O)[C@H](CCC(=O)O)NC(=O)[C@H]2CCCN2C(=O)[C@H]([C@@H](C)O)NC(=O)[C@H](CCCCN)NC(=O)[C@H](CCC(N)=O)NC(=O)[C@@H]2C[C@@H]3CCCC[C@@H]3N2C(=O)[C@@H]2CCCN2C1=O [Example 44, Cyclo(-Arg-Val-Thr-Ala-Ser-Ile-Pro-Oic-Gln-Lys-Thr-^DPro-Glu-)] (cyclo(RVTASIP[Oic]QKT[dP]E))	9.6	>10417	> 100000	>10417	> 100000
CCCCCCCC[C@@H]1NC(=O)[C@@H]2CCCN2C(=O)[C@H]2CCCN2C(=O)[C@H]([C@@H](C)O)NC(=O)[C@H](CCCCN)NC(=O)[C@H](CCC(N)=O)NC(=O)[C@@H]2CCCCN2C(=O)[C@@H]2CCCN2C(=O)[C@H]([C@@H](C)CC)NC(=O)[C@H](CO)NC(=O)[C@H](C)NC(=O)[C@H]([C@@H](C)O)NC(=O)[C@H](CCC(=O)O)NC1=O [Example 45, Cyclo(-OctGly-Glu-Thr-Ala-Ser-Ile-Pro-Pip-Gln-Lys-Thr-^DPro-Pro-)] (cyclo([Gly(octyl)]ETASIP[Pip]QKT[dP]P))	7.1	324	2300	127	900
CCCCCCCC[C@@H]1NC(=O)[C@@H]2CCCN2C(=O)[C@H]2CCCN2C(=O)[C@H]([C@@H](C)O)NC(=O)[C@H](CCCCN)NC(=O)[C@H](CCC(N)=O)NC(=O)[C@@H]2CCN2C(=O)[C@@H]2CCCN2C(=O)[C@H]([C@@H](C)CC)NC(=O)[C@H](CO)NC(=O)[C@H](C)NC(=O)[C@H]([C@@H](C)O)NC(=O)[C@H](CCC(=O)O)NC1=O [Example 46, Cyclo(-OctGly-Glu-Thr-Ala-Ser-Ile-Pro-Azt-Gln-Lys-Thr-^DPro-Pro-)] (cyclo([Gly(octyl)]ETASIP[Aze]QKT[dP]P))	7.1	268	1900	310	2200
CC[C@H](C)[C@@H]1NC(=O)[C@H](CO)NC(=O)[C@H](C)NC(=O)[C@H]([C@@H](C)O)NC(=O)[C@H](CCc2ccc(O)cc2)NC(=O)[C@H](CCCNC(=N)N)NC(=O)[C@H](CCC(=O)O)NC(=O)[C@H]2CCCN2C(=O)[C@H]([C@@H](C)O)NC(=O)[C@H](CCCCN)NC(=O)[C@H](CCC(N)=O)NC(=O)[C@@H]2CCCN2C(=O)[C@@H]2CCCN2C1=O [Example 49] (cyclo(R[hTyr]TASIPPQKT[dP]E))	15.3	2490	38100	627	9600

Now those with a lower IC50 [1], led by results:

IC50 [1] [nM]	hNE/PPE selectivity [2]	IC50 [2] [nM]	hNE/hPr3 selectivity [3]	IC50 [3] [nM]	SMILES
2.7	>237037	> 100000	>237037	> 100000	CC[C@H](C)[C@@H]1NC(=O)[C@H](CO)NC(=O)[C@H](C)NC(=O)[C@H]([C@@H](C)O)NC(=O)[C@H](CCc2ccc(O)cc2)NC(=O)[C@H](CCCNC(=N)N)NC(=O)[C@H](CCC(=O)O)NC(=O)[C@H]2CCCN2C(=O)[C@H]([C@@H](C)O)NC(=O)[C@H](CCCCN)NC(=O)[C@H](CCC(N)=O)NC(=O)[C@@H]2C[C@@H]3CCCC[C@@H]3N2C(=O)[C@@H]2CCCN2C1=O [Example 43, Cyclo(-Arg-hTyr-Thr-Ala-Ser-Ile-Pro-Oic-Gln-Lys-Thr-^DPro-Glu-)] (cyclo(R[hTyr]TASIP[Oic]QKT[dP]E))
1.4	357	500	714	1000	CCCCCCCC[C@@H]1NC(=O)[C@@H]2CCCN2C(=O)[C@H]2CCCN2C(=O)[C@H](CO)NC(=O)[C@H](CCCCN)NC(=O)[C@H](CCC(N)=O)NC(=O)[C@@H]2CCCN2C(=O)[C@@H]2CCCN2C(=O)[C@H]([C@@H](C)CC)NC(=O)[C@H](CO)NC(=O)[C@H](C)NC(=O)[C@H]([C@@H](C)O)NC(=O)[C@H](CCc2ccc(O)cc2)NC1=O [Example 47] (cyclo([Gly(octyl)][hTyr]TASIPPQKS[dP]P))
2.7	148	400	407	1100	CCCCCCCC[C@@H]1NC(=O)[C@@H]2CCCN2C(=O)[C@H]2CCCN2C(=O)[C@H](CC(N)=O)NC(=O)[C@H](CCCCN)NC(=O)[C@H](CCC(N)=O)NC(=O)[C@@H]2CCCN2C(=O)[C@@H]2CCCN2C(=O)[C@H]([C@@H](C)CC)NC(=O)[C@H](CO)NC(=O)[C@H](C)NC(=O)[C@H]([C@@H](C)O)NC(=O)[C@H](CCc2ccc(O)cc2)NC1=O [Example 48] (cyclo([Gly(octyl)][hTyr]TASIPPQKN[dP]P))
